Measured values reported in publication PMC10287695, “Non-covalent inhibitors of thioredoxin glutathione reductase with schistosomicidal activity in vivo” (Nature Communications, 2023).
Read-outs that look alike come from different tables or passages of the source. Marks after values point to notes of the source that are not given here.

Columns and labels:
[1] = system: TGR in newly transformed schistosomula (NTS); experiment: TGR inhibition in NTS with TRFS-Green fluorescent probe; format: cell-based, S. mansoni; settings: for TRFS-Green fluorescence in NTS: 2 h with inhibitor (30 µM; AF 3 µM) then TRFS-Green 10 µM
Description: TGR inhibition in NTS was assessed using a fluorescent probe TRFS-Green (Medchemexpress)[43]. NTS prepared as previously described and cultured in M199 supplemented with 5.5 mM D-glucose, penicillin-streptomycin and 5% heat inactivated fetal bovine serum were incubated at 37 °C in a clear bottom flat well plate in a 5% CO2 incubator overnight. […] NTS were further treated with TRFS-Green (10 µM) for additional 4 h and rinsed with M199 medium to remove residual TRFS-Green. Fluorescence images were obtained using Keyence BZ-X800. The quantification of fluorescence intensity upon the uptake of TRFS-Green by NTS was performed by a fluorescent microplate imager (BioTek Cytation3) (excitation, 438 nm; emission, 538 nm) hourly for 5 h and after 24 h.

[2] = system: S. mansoni juvenile worms (21 days); experiment: Schistosomicidal activity ex vivo, juvenile worms (21 days); format: cell-based; settings: for % viability / viability at 5 µM / viability at 15 µM / viability at 30 µM: 23 day S. mansoni worms, 48 HR; for LD50 ex vivo S. mansoni 21 days: juvenile worms, 48 h exposure; for viability at 5 µM / viability at 15 µM / viability at 30 µM: Schistosoma mansoni; for viability at 15 µM: Conc. 15 µM; for viability at 30 µM: Conc. 30 µM
Description: Three-week old, female Swiss-Webster mice obtained from the Charles River were housed in the Comparative Research Center of Rush University Medical Center. Mice were infected by percutaneous tail exposure to about 200 S. mansoni or 50 S. japonicum cercaria for adult worms and about 1000 cercaria for juvenile S. mansoni worms through natural transdermal penetration of the cercariae for 1 h[81].
DMSO formulated compounds were diluted with phenol red free M199 medium or RPMI medium for NTS or juvenile and adult worms, respectively, at <1% DMSO final concentrations. NTS, juvenile and adult worms from overnight cultures were tested against compounds in triplicate. Controls were treated with DMSO alone or 5 µM AF as a positive control in appropriate medium. […] Schistosome viabilities in the presence of the compounds were assessed using this formula: % Viability = Averages of Test / Averages of DMSO Control x 100.

PfTrxR = biological target: T1, PfTrxR (Plasmodium falciparum, UniProt Q25861); experiment: P. falciparum TrxR enzyme inhibition; format: biochemical; settings: for PfTrxR % inhibition at 50 µM: the highest concentration tested
T1 construct: 6-His (N); made in house; host or cells: E. coli BL21 (DE3)
T1 sequence (Q25861 1-541): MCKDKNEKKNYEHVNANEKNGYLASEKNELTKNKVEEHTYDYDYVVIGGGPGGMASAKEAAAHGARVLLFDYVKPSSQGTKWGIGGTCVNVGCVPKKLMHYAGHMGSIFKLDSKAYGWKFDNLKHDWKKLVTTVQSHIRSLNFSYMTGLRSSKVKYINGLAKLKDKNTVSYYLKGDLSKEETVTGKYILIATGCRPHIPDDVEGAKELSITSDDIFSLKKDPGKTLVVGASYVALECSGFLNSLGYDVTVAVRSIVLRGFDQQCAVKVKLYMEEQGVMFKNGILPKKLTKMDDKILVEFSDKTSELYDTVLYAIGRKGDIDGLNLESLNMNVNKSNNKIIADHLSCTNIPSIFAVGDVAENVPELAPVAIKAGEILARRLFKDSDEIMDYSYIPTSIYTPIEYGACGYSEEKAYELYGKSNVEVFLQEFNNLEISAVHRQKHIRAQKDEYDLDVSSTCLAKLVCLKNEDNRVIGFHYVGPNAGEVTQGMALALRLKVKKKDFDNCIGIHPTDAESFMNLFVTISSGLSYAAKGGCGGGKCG
Description: Recombinant TGR, human TrxR1, B. malayi (Bm)TrxR and human GR proteins were expressed and purified as described[20],[69],[79]. The codon optimized sequence for P. falciparum (PfTrxR, https://www.ncbi.nlm.nih.gov/protein/CAA60574.1/) with an N-terminal 6-His tag was synthesized and inserted into pET15b (GenScript) and expressed in BL21 (DE3) cells and purified as described for human GR[20]. TGR and TrxR enzyme inhibition assays were performed in triplicate at 25 °C as described[20] in 0.1 M potassium phosphate (pH 7.4), 10 mM EDTA, 100 µM NADPH and 0.01% Tween-20. TGR, human TrxR1 and BmTrxR (all at 4 nM) and PfTrxR (50 nM) were preincubated with the compounds for 15 min. The reaction was started with addition of an equal volume of DTNB (6 mM) and NADPH (100 µM) and the increase in A412 during the first 3 min was recorded. […] The reaction was preincubated for 15 min. Activity was initiated with the addition of 1 mM GSSG and 100 μM NADPH and initial rates of NADPH oxidation were monitored at 340 nm. The reactions were done in triplicate. The IC50 was calculated in GraphPad Prism.

BmTrxR = BmTrxR (Brugia malayi, UniProt A0A1I9G0T9); experiment: B. malayi TrxR enzyme inhibition; format: biochemical
Description: Recombinant TGR, human TrxR1, B. malayi (Bm)TrxR and human GR proteins were expressed and purified as described[20],[69],[79]. The codon optimized sequence for P. falciparum (PfTrxR, https://www.ncbi.nlm.nih.gov/protein/CAA60574.1/) with an N-terminal 6-His tag was synthesized and inserted into pET15b (GenScript) and expressed in BL21 (DE3) cells and purified as described for human GR[20]. […] The reaction was started with addition of an equal volume of DTNB (6 mM) and NADPH (100 µM) and the increase in A412 during the first 3 min was recorded. […] Activity was initiated with the addition of 1 mM GSSG and 100 μM NADPH and initial rates of NADPH oxidation were monitored at 340 nm. The reactions were done in triplicate. The IC50 was calculated in GraphPad Prism.

[3] = Cytotoxicity in mammalian cells (Cell Titer Glo); format: cell-based; settings: African green monkey, Vero cells
Description: Following overnight incubation, formulated DMSO-compound stock solutions were diluted with DMEM at <1% DMSO final concentrations. […] Vero cells treated similarly with different concentrations of PZQ, MZM and AF (Cayman Chemicals) were used as positive controls.

[4] = BmTrxR, 10 µM compound, mean of 3 replicates, read-out: % inhibition
[5] = BmTrxR, 25 µM compound, mean of 3 replicates, read-out: % inhibition
[6] = BmTrxR, 50 µM compound, mean of 3 replicates, read-out: % inhibition
[7] = read-out: PfTrxR % inhibition at 50 µM
[8] = 50 µM, the highest concentration tested
[9] = 5 µM, relative to untreated control
[10] = 10 µM, relative to untreated control
[11] = 25 µM, relative to untreated control
[12] = 35 µM, relative to untreated control
[13] = 50 µM, relative to untreated control

Chain of BmTrxR (A0A1I9G0T9 entry or part of it, added parts left off): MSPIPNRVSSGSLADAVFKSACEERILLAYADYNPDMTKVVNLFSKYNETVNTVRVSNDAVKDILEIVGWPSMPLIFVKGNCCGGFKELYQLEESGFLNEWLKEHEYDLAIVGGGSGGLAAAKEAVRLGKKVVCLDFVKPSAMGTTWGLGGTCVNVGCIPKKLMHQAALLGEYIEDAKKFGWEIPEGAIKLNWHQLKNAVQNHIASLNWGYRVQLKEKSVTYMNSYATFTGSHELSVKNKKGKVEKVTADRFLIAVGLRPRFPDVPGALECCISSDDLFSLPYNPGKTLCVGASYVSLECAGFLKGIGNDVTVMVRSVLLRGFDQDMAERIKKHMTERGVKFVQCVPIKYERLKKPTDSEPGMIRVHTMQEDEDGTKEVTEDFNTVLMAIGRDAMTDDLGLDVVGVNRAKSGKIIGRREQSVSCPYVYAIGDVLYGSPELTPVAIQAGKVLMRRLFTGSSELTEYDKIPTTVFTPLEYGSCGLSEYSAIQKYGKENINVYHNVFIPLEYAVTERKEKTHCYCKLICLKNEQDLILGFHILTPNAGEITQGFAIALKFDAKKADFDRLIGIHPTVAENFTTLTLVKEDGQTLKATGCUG

SMILES	TRFS-Green fluorescence in NTS [1]	LD50 ex vivo S. mansoni 21 days [2]	viability at 5 µM ([2]; Conc. 5 µM)	viability at 15 µM [2]	viability at 30 µM [2]	inhibition at 10 µM (BmTrxR; [4])	inhibition at 25 µM (BmTrxR; [5])	inhibition at 50 µM (BmTrxR; [6])	inhibition at 50 µM (PfTrxR; [7])	inhibition at 10 µM (PfTrxR)	inhibition at 25 µM (PfTrxR)	inhibition at 50 µM (PfTrxR)	viability at 24 h, 5 µM [3, 9]	viability at 24 h, 10 µM [3, 10]	viability at 24 h, 25 µM [3, 11]	viability at 24 h, 35 µM [3, 12]	viability at 24 h, 50 µM [3, 13]	other results
CC(=O)OC[C@H]1O[C@@H]([S-])[C@H](OC(C)=O)[C@@H](OC(C)=O)[C@@H]1OC(C)=O.CCP(CC)CC.[Au+] [AF, auranofin, reference compound]	significant decreases in fluorescence	0.62 ± 0.01 µM																% viability ([2]; Conc. 0.5 µM): 50.0296%; % viability ([2]; Conc. 1 µM): 15.8933%; % viability ([2]; Conc. 2.5 µM): 5.6364%; % viability ([2]; Conc. 5 µM): 0.3335%
Cc1oc(-c2ccc3c(c2)OCO3)nc1CN[C@@H]1C[C@@H]2C[C@H]([C@H]1C)C2(C)C [Compound 1]	significant decreases in fluorescence	26.3 ± 0.48 µM	69%	54.9%	46.4%	22.5%	40.6%	77.5%										production of green fluorescent dye in TRFS-green assay ([1]; compound at 5 µM): abolished; PfTrxR % inhibition at 50 µM (PfTrxR): n.i.; inhibition at 10 µM (PfTrxR; PfTrxR, 10 µM compound, mean of 3 replicates, read-out: % inhibition): -2.06%; inhibition at 25 µM (PfTrxR; PfTrxR, 25 µM compound, mean of 3 replicates, read-out: % inhibition): -2.16%; inhibition at 50 µM (PfTrxR; PfTrxR, 50 µM compound, mean of 3 replicates, read-out: % inhibition): -1.29%; IC50 (BmTrxR): 37 ± 3.04 µM; viability at 24 h, 5 µM ([3]; Conc. 5 µM): 94.7%; viability at 24 h, 10 µM ([3]; Conc. 10 µM): 94.6%; viability at 24 h, 25 µM ([3]; Conc. 25 µM): 94.3%; viability at 24 h, 35 µM ([3]; Conc. 35 µM): 83.3%; viability at 24 h, 50 µM ([3]; Conc. 50 µM): 72.5%
Cc1oc(-c2ccccc2)nc1CN[C@@H]1C[C@@H]2C[C@H]([C@H]1C)C2(C)C [Compound 3]		10.9 ± 0.39 µM	66%	43.1%	32.1%				12%									inhibition at 10 µM (BmTrxR): -15.1%; inhibition at 25 µM (BmTrxR): -10.6%; inhibition at 50 µM (BmTrxR): -20.9%; BmTrxR % inhibition at 50 µM (BmTrxR; [8]): n.i.
Cc1oc(C2CCCCC2)nc1CN[C@@H]1C[C@@H]2C[C@H]([C@H]1C)C2(C)C [Compound 4]	significant decreases in fluorescence	14.2 ± 2.13 µM	65.7%	45.3%	27.7%	-0.192%	0.661%	0.575%	18%	1.8%	4.57%	18.1%						BmTrxR % inhibition at 50 µM (BmTrxR; [8]): n.i.
Cc1oc(-c2ccc3ccccc3c2)nc1CNC1CCCCCC1 [Compound 5]		16.9 ± 2.80 µM	65.4%	52.1%	36.8%	-0.384%	3.27%	9.07%		-1.11%	-0.0146%	-1.37%						PfTrxR % inhibition at 50 µM (PfTrxR): n.i.; inhibition at 50 µM (BmTrxR; read-out: BmTrxR % inhibition at 50 µM, 50 µM, the highest concentration tested): 9%
C#CCN(Cc1nc(-c2ccccc2)oc1C)[C@@H]1C[C@@H]2C[C@H]([C@H]1C)C2(C)C [Compound 6]		>30^a µM	73.2%	60.7%	56.8%													viability at 24 h, 1 µM ([3]; Conc. 1 µM): 99.1%; viability at 24 h, 5 µM ([3]; Conc. 5 µM): 99%; viability at 24 h, 10 µM ([3]; Conc. 10 µM): 91.1%; viability at 24 h, 25 µM ([3]; Conc. 25 µM): 86.8%; viability at 24 h, 50 µM ([3]; Conc. 50 µM): 79.9%; viability at 24 h, 100 µM ([3]; Conc. 100 µM): 63.9%
CC1C(NCc2cn(C3OCC(O)C(O)C3O)c3ccccc23)CC2CC1C2(C)C (centres unmarked) [Compound 9]						47.6%	70.1%	83.3%	16%	6.78%	8.79%	16.2%	92.7%	90.7%	89.9%	89.6%	83.5%	IC50 (BmTrxR): 13.7 ± 1.03 µM
C[C@@H]1[C@H]2C[C@@H](C[C@H]1NCc1nc3ccccc3n1C)C2(C)C [Compound 12]	negligible effects																	
C[C@@H]1N=C(c2ccccc2Cl)c2cc([N+](=O)[O-])ccc2NC1=O [MZM, meclonazepam, reference compound]		>50^a µM											99.8%	98.1%	92.9%	90.8%	87%	
O=C(C1CCCCC1)N1CC(=O)N2CCc3ccccc3C2C1 (centres unmarked) [PZQ, praziquantel]		>50^a µM											97.1%	98.3%	92.3%	89.1%	88.9%	
